Experimental findings from ChEMBL document CHEMBL1287701, “Substituted N-{3-[(1,1-dioxido-1,2-benzothiazol-3-yl)(phenyl)amino]propyl}benzamide analogs as potent Kv1.3 ion channel blockers. Part 2” (Bioorg Med Chem Lett, 2010) are described below.

Values after ≈ are worked out from the molar mass of the structure shown.

The target of series [1] is Potassium voltage-gated channel subfamily A member 5 (Homo sapiens, UniProt P22460). The series can be described thus: Inhibition of human Kv1.5 ion channel expressed in CHO K1 cells. The format is cell-based.
Potassium voltage-gated channel subfamily A member 5, sequence (P22460 whole entry): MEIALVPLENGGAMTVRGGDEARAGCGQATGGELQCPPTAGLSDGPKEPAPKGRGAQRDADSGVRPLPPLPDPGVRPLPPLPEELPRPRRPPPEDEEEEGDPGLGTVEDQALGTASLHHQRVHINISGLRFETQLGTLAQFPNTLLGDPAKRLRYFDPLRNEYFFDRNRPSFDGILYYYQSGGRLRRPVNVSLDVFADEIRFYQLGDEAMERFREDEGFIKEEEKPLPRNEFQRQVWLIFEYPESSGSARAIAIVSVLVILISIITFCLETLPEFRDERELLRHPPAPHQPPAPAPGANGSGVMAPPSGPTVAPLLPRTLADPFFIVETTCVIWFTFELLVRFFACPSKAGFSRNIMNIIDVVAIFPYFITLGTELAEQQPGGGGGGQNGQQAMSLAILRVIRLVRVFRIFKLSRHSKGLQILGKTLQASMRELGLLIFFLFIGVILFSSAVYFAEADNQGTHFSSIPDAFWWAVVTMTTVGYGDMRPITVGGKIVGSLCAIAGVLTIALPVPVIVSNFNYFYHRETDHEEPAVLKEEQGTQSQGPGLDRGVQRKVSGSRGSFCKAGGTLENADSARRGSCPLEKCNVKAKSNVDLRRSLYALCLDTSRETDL
In series [2] the target is Potassium voltage-gated channel subfamily A member 3 (Homo sapiens, UniProt P22001). The series can be described thus: Inhibition of human Kv1.3 ion channel expressed in CGE22 cells. Type of series: cell-based.
Potassium voltage-gated channel subfamily A member 3, sequence (P22001 whole entry): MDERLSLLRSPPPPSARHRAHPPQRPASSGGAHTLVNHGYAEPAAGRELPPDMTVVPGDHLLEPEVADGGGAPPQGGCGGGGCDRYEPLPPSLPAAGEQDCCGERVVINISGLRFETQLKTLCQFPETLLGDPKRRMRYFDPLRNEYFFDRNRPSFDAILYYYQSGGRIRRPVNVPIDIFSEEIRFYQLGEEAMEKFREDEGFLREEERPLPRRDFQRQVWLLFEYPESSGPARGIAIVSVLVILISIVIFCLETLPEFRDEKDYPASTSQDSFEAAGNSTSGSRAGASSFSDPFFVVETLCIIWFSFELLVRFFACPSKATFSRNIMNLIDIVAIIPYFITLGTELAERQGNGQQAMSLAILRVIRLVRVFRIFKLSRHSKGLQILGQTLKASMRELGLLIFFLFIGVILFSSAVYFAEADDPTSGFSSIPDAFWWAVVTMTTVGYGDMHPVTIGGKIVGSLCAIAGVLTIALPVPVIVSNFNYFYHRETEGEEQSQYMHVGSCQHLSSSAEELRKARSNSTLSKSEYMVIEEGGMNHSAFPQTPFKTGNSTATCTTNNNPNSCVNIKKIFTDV
The subject of the next series is Rattus norvegicus. In words: Dose normalised AUC in rat at 10 mg/kg, po. The arrangement: dose 10 mg/kg, route oral. The note with it: in vivo. Type of series: ADME, organism-based.
Series [3] can be described thus: Cmax in rat at 10 mg/kg, po. The format is ADME, organism-based. The arrangement: dose 10 mg/kg, route oral. The note with it: in vivo.
A short description of series [4]: Aqueous solubility of compound by chemiluminescent nitrogen detection analysis. Type of series: physicochemical.
Series [5] can be described thus: Half life in rat liver microsome. Type of series: ADME. The note with it: liver microsomes.

As usually defined, the IC50 is the point on the concentration scale where inhibition reaches its midpoint. In general, Cmax refers to the maximum level reached in the sampled fluid or tissue. What is called solubility is the concentration that dissolves in the medium under given conditions. Read a high solubility as a readily soluble substance. The term half-life denotes the time in which the quantity being followed falls by half. A high value points to slow loss.

For `CC(C)(CNC(=O)C1(C(=O)O)CC1)CN(C1=NS(=O)(=O)c2cc(F)ccc21)c1ccccc1`, the IC50 in series [1] and in series [2] was greater than 50000 nM in each case.
For `CC(C)(CNC(=O)c1ccncc1O)CN(C1=NS(=O)(=O)c2cc(F)ccc21)c1ccccc1`, the IC50 in series [1] and in series [2] was greater than 50000 nM in each case.
`CC(C)(CNC(=O)C1(N)CCCC1)CN(C1=NS(=O)(=O)c2cc(F)ccc21)c1ccccc1`: the figures for the IC50 in series [1] and in series [2] were 2640 nM and 1510 nM, respectively.
On the same counts, the results for `CC(C)(CNC(=O)c1cc[nH]c1)CN(C1=NS(=O)(=O)c2cc(F)ccc21)c1ccccc1` are 1320 nM and 1150 nM.
On the same counts, the results for `CC(C)(CNC(=O)C1CCCNC1)CN(C1=NS(=O)(=O)c2cc(F)ccc21)c1ccccc1` (configuration not stated) are greater than 50000 nM and greater than 50000 nM.
On the same counts, the results for `CC(C)(CNC(=O)c1cocn1)CN(C1=NS(=O)(=O)c2cc(F)ccc21)c1ccccc1` are 900 nM and 750 nM.
With `CC(C)(CNC(=O)C1(C(F)(F)F)CCC1)CN(C1=NS(=O)(=O)c2cc(F)ccc21)c1ccccc1`, the results for the IC50 in series [1] and in series [2] were 320 nM and 90 nM, respectively.
For `CC(C)(CNC(=O)C1CCCO1)CN(C1=NS(=O)(=O)c2cc(F)ccc21)c1ccccc1` (configuration not stated), in that order: 830 nM and 360 nM.
On to `CC(C)(CNC(=O)c1cscn1)CN(C1=NS(=O)(=O)c2cc(F)ccc21)c1ccccc1`, for which the IC50 in series [1] was determined as 290 nM; in series [2], 540 nM.
For `CC(C)(CNC(=O)c1ncccc1O)CN(C1=NS(=O)(=O)c2cc(F)ccc21)c1ccccc1`, in that order: 460 nM and 320 nM.
On the same counts, the results for `CC(C)(CNC(=O)C1(O)CCCC1)CN(C1=NS(=O)(=O)c2cc(F)ccc21)c1ccccc1` are 730 nM and 470 nM.
On the same counts, the results for `COc1cnccc1C(=O)NCC(C)(C)CN(C1=NS(=O)(=O)c2cc(F)ccc21)c1ccccc1` are 370 nM and 200 nM.
For the compound `CC(C)(CNC(=O)C1(C#N)CC1)CN(C1=NS(=O)(=O)c2cc(F)ccc21)c1ccccc1`, the AUC with Rattus norvegicus came to 630 ng·kg·h/mg/mL. The compound also gave a Cmax in series [3] of 900 ng/mL. Further, the IC50 in series [1] amounted to 540 nM; in series [2], 350 nM. The same compound returned a solubility in series [4] of 304 µM (≈ 138 µg/mL).
With `CC(C)(CNC(=O)c1ccc(F)cc1)CN(C1=NS(=O)(=O)c2ccccc21)c1ccccc1`, the half-life in series [5] is less than 15 min. Moreover, it took 160 nM to reach half-maximal inhibition in series [2] (IC50).
Consider `CC(C)(CNC(=O)C1CCCCN1)CN(C1=NS(=O)(=O)c2cc(F)ccc21)c1ccccc1` (configuration not stated), for which the concentration for half-maximal inhibition (IC50) came out at 5970 nM in series [1] and 5900 nM in series [2].
`CC(C)(CNC(=O)N1CCOCC1)CN(C1=NS(=O)(=O)c2ccccc21)c1ccccc1`: in series [5], the half-life came out at 30 min. For the same compound, in series [2], the IC50 came to 470 nM.
In the case of `CC(C)(CNC(=O)C1CC1)CN(C1=NS(=O)(=O)c2cc(F)ccc21)c1ccccc1`, the IC50 in series [1] is 490 nM; in series [2], 280 nM.
Regarding `CC(C)(CNC(=O)C1(O)CCC(F)(F)CC1)CN(C1=NS(=O)(=O)c2cc(F)ccc21)c1ccccc1`, the IC50 is 630 nM in series [1] and 390 nM in series [2].
On the same counts, the results for `CC(C)(CNC(=O)CC1CCCCO1)CN(C1=NS(=O)(=O)c2cc(F)ccc21)c1ccccc1` (configuration not stated) are 780 nM and 1350 nM.
For `CC(C)(CNC(=O)CC(F)(F)F)CN(C1=NS(=O)(=O)c2cc(F)ccc21)c1ccccc1`, in that order: 270 nM and 150 nM.
On the same counts, the results for `CNC(=O)NCC(C)(C)CN(C1=NS(=O)(=O)c2cc(F)ccc21)c1ccccc1` are 2220 nM and 3080 nM.
Turning to `CC(C)(CNC(=O)C1(O)CCOCC1)CN(C1=NS(=O)(=O)c2cc(F)ccc21)c1ccccc1`, the half-maximal inhibitory concentration (IC50) in series [1] turned out to be 1980 nM; in series [2], 1070 nM.
For the compound `CC(CNC(=O)c1ccc(F)cc1)CN(C1=NS(=O)(=O)c2ccccc21)c1ccccc1` (configuration not stated), in series [5], the half-life turned out to be 22 min. The IC50 in series [2] amounted to 440 nM.
In the case of `CC(C)(CNC(=O)C(C)(O)C(F)(F)F)CN(C1=NS(=O)(=O)c2cc(F)ccc21)c1ccccc1` (configuration not stated), in the series with Rattus norvegicus, the AUC is 1630 ng·kg·h/mg/mL. This compound showed a maximum concentration (Cmax) in series [3] of 2100 ng/mL. Moreover, the half-maximal inhibitory concentration (IC50) in series [1] came out at 480 nM; in series [2] it was 250 nM. Moreover, the solubility in series [4] stood at 52 µM (≈ 26.1 µg/mL).
Regarding `CC(C)(CNC(=O)C1CCCCO1)CN(C1=NS(=O)(=O)c2cc(F)ccc21)c1ccccc1` (configuration not stated), the IC50 in series [1] stood at 440 nM; in series [2], 640 nM.
On the same counts, the results for `CC(=O)NCC(C)(C)CN(C1=NS(=O)(=O)c2cc(F)ccc21)c1ccccc1` are 1180 nM and 1180 nM.
For `Cn1ccnc1C(=O)NCC(C)(C)CN(C1=NS(=O)(=O)c2cc(F)ccc21)c1ccccc1`, in that order: 520 nM and 550 nM.
On the same counts, the results for `CC(C)(CNC(=O)c1ccoc1)CN(C1=NS(=O)(=O)c2cc(F)ccc21)c1ccccc1` are 360 nM and 150 nM.
Turning to `CC(C)(CNC(=O)C1(C(F)(F)F)CC1)CN(C1=NS(=O)(=O)c2cc(F)ccc21)c1ccccc1`, the 50% inhibitory concentration (IC50) in series [1] came to 240 nM; in series [2] it was 80 nM.
For `Cn1cnc(C(=O)NCC(C)(C)CN(C2=NS(=O)(=O)c3cc(F)ccc32)c2ccccc2)c1`, in that order: 13900 nM and 13100 nM.
On the same counts, the results for `CC(C)(CNC(=O)C1CCOCC1(C)C)CN(C1=NS(=O)(=O)c2cc(F)ccc21)c1ccccc1` (configuration not stated) are 960 nM and 840 nM.
On the same counts, the results for `CC(C)(CNC(=O)C1(C#N)CCOCC1)CN(C1=NS(=O)(=O)c2cc(F)ccc21)c1ccccc1` are 560 nM and 330 nM.
As to `CC(C)(CNC(=O)C1CCOCC1)CN(C1=NS(=O)(=O)c2cc(F)ccc21)c1ccccc1`, the half-life in series [5] was found to be 26 min. In series [2], this compound came in with an IC50 of 530 nM.
As to `CC(C)(CNC(=O)C1(O)CCCCC1)CN(C1=NS(=O)(=O)c2cc(F)ccc21)c1ccccc1`, the IC50 is 450 nM in series [1] and 350 nM in series [2].
On the same counts, the results for `CN1CCCC(C(=O)NCC(C)(C)CN(C2=NS(=O)(=O)c3cc(F)ccc32)c2ccccc2)C1` (configuration not stated) are 13700 nM and 12000 nM.
`CN1CCCCC1C(=O)NCC(C)(C)CN(C1=NS(=O)(=O)c2cc(F)ccc21)c1ccccc1` (configuration not stated): the half-maximal inhibitory concentration (IC50) in series [1] worked out at 2880 nM; in series [2], 3400 nM.
For `CC(C)(CNC(=O)c1cccnc1O)CN(C1=NS(=O)(=O)c2cc(F)ccc21)c1ccccc1`, in that order: 9060 nM and 10100 nM.
`CC(C)(CNC(=O)C1CCOCC1)CN(C1=NS(=O)(=O)c2ccccc21)c1ccccc1` showed a half-life in series [5] of 32 min. Moreover, half-maximal inhibition in series [2] (IC50) was put at 700 nM.
In the case of `CC(C)(CNC(=O)c1ccco1)CN(C1=NS(=O)(=O)c2cc(F)ccc21)c1ccccc1`, the IC50 is 410 nM in series [1] and 200 nM in series [2].
As for `CN1CCCC1C(=O)NCC(C)(C)CN(C1=NS(=O)(=O)c2cc(F)ccc21)c1ccccc1` (configuration not stated), the 50% inhibitory concentration (IC50) in series [1] stood at 1390 nM; in series [2], 2560 nM.
For `CC(C)(CNC(=O)N1CCCC1)CN(C1=NS(=O)(=O)c2cc(F)ccc21)c1ccccc1`, in that order: 340 nM and 300 nM.
For the compound `CC(C)(CNC(=O)C1COCCN1)CN(C1=NS(=O)(=O)c2cc(F)ccc21)c1ccccc1` (configuration not stated), the IC50 in series [1] worked out at 2000 nM; in series [2], 1260 nM.
On to `CC(C)(CNC(=O)c1cc2ccccc2o1)CN(C1=NS(=O)(=O)c2cc(F)ccc21)c1ccccc1`, for which the IC50 in series [1] and in series [2] was greater than 50000 nM each time.
With `CC(C)(CNC(=O)C1(C)CC1)CN(C1=NS(=O)(=O)c2cc(F)ccc21)c1ccccc1`, the 50% inhibitory concentration (IC50) in series [1] is 370 nM; in series [2] it was 200 nM.
With `CC(C)(CNC(=O)C1(O)CC1)CN(C1=NS(=O)(=O)c2cc(F)ccc21)c1ccccc1`, the half-maximal inhibitory concentration (IC50) turned out to be 1350 nM in series [1] and 820 nM in series [2].
Turning to `O=C(NCCCN(C1=NS(=O)(=O)c2ccccc21)c1ccccc1)c1ccc(F)cc1`, in series [5], the half-life is less than 15 min.
For the compound `CC(C)(CNC(=O)C1CC1(F)F)CN(C1=NS(=O)(=O)c2cc(F)ccc21)c1ccccc1` (configuration not stated), the half-maximal inhibitory concentration (IC50) in series [1] amounted to 320 nM; in series [2], 140 nM.
For `CC(C)(CNC(=O)C1(N)CC1)CN(C1=NS(=O)(=O)c2cc(F)ccc21)c1ccccc1`, in that order: 790 nM and 530 nM.
For `CC(C)(CNC(=O)c1cnccn1)CN(C1=NS(=O)(=O)c2cc(F)ccc21)c1ccccc1`, in that order: 350 nM and 230 nM.
Regarding `CC(C)(CNC(=O)N1CCOCC1)CN(C1=NS(=O)(=O)c2cc(F)ccc21)c1ccccc1`, the half-life in series [5] was 60 min. Moreover, the half-maximal inhibitory concentration (IC50) in series [2] was determined as 340 nM.
For `CC(C)(CNC(=O)c1cccc(C(F)(F)F)c1)CN(C1=NS(=O)(=O)c2cc(F)ccc21)c1ccccc1`, in that order: 39 min and 700 nM.
Turning to `O=c1ccc2c(OCCCCOc3ccccc3)c3ccoc3cc2o1`, the half-maximal inhibitory concentration (IC50) in series [1] was determined as 3450 nM.
With `CN1CCC(C(=O)NCC(C)(C)CN(C2=NS(=O)(=O)c3cc(F)ccc32)c2ccccc2)CC1`, the half-maximal inhibitory concentration (IC50) in series [1] and in series [2] was greater than 50000 nM in each case.
Compound `CC(C)(CNC(=O)c1cccc(C(F)(F)F)c1)CN(C1=NS(=O)(=O)c2ccccc21)c1ccccc1` gave a half-life in series [5] of less than 15 min. In addition, inhibition in series [2] was half-maximal at 560 nM (IC50).
